ChEMBL document CHEMBL5338715, “Identification of (S)-1-(2-(2,4-difluorophenyl)-4-oxothiazolidin-3-yl)-3-(4-((7-(3-(4-ethylpiperazin-1-yl)propoxy)-6-methoxyquinolin-4-yl)oxy)-3,5-difluorophenyl)urea as a potential anti-colorectal cancer agent” (Eur J Med Chem, 2022)

Key:
[1] = Metabolic stability in human liver microsomes assessed as intrinsic clearance at 1 uM measured upto 45 mins in presence of NADPH by LC-MS/MS analysis; type: ADME, Microsome; details: read-out: CLH
MKN-45 = experiment: cells; details: Homo sapiens
cells = details: Homo sapiens, TT
LoVo = experiment: cells; details: Homo sapiens
[2] = Metabolic stability in human liver microsomes assessed as half life at 1 uM measured upto 45 mins in presence of NADPH by LC-MS/MS analysis; type: ADME, Microsome
SNU-5 = experiment: cells; details: Homo sapiens
[3] = Metabolic stability in human liver microsomes assessed as parent compound remaining at 1 uM measured after 45 mins in presence of NADPH by LC-MS/MS analysis; type: ADME, Microsome; details: read-out: Stability
BaF3 [4] = experiment: cells; details: Mus musculus, BaF3, 72 h
EBC-1 = experiment: cells; details: Homo sapiens
BaF3 [5] = experiment: cells; details: Mus musculus, BaF3, 72 h; remark: listed apart in the source
COLO 205 = experiment: cells; details: Homo sapiens
[6] = Cytotoxicity against human FHC cells assessed as cell growth inhibition by MTT assay; type: toxicity, cell-based
HCT-116 = experiment: cells; details: Homo sapiens
HT-29 = experiment: cells; details: Homo sapiens
NCI-H1993 = experiment: cells; details: Homo sapiens
[7] = biological target: T1, Proto-oncogene tyrosine-protein kinase receptor Ret (Homo sapiens, UniProt P07949); experiment: Inhibition of RET (unknown origin) by kinome scan assay
T1 sequence (P07949 whole entry): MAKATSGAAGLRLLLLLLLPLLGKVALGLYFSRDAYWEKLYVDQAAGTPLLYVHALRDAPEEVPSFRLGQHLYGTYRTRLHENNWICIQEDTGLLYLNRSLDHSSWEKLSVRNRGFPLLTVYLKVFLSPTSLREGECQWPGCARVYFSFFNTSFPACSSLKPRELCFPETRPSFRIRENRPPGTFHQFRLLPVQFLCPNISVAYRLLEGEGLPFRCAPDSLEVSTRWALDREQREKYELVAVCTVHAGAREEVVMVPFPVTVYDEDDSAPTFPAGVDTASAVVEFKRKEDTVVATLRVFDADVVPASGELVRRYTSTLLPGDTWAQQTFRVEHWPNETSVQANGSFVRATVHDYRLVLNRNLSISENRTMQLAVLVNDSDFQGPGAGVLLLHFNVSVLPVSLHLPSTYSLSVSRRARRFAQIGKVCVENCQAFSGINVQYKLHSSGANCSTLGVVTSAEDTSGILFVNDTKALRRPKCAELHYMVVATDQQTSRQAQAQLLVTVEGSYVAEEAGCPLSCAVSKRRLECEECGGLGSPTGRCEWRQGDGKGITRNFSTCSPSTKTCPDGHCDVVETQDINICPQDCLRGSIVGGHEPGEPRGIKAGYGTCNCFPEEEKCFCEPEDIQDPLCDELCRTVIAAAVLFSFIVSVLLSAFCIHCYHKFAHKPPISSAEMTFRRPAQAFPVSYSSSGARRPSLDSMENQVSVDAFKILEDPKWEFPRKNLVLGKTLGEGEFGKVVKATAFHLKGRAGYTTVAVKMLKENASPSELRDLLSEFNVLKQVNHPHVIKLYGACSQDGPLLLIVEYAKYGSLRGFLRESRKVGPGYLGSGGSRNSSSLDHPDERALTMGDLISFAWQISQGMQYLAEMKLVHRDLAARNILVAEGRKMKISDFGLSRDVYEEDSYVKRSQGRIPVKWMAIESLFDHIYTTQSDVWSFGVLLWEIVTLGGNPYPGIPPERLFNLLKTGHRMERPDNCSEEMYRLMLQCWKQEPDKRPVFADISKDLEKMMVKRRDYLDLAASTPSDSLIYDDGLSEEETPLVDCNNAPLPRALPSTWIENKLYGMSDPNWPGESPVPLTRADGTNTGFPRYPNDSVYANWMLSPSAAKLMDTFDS

[8] = biological target: T2, Tyrosine-protein kinase ABL1 (Homo sapiens, UniProt P00519); experiment: Inhibition of ABL (unknown origin) assessed as residual activity at 1 uM by kinome scan assay relative to control
T2 sequence (P00519 whole entry): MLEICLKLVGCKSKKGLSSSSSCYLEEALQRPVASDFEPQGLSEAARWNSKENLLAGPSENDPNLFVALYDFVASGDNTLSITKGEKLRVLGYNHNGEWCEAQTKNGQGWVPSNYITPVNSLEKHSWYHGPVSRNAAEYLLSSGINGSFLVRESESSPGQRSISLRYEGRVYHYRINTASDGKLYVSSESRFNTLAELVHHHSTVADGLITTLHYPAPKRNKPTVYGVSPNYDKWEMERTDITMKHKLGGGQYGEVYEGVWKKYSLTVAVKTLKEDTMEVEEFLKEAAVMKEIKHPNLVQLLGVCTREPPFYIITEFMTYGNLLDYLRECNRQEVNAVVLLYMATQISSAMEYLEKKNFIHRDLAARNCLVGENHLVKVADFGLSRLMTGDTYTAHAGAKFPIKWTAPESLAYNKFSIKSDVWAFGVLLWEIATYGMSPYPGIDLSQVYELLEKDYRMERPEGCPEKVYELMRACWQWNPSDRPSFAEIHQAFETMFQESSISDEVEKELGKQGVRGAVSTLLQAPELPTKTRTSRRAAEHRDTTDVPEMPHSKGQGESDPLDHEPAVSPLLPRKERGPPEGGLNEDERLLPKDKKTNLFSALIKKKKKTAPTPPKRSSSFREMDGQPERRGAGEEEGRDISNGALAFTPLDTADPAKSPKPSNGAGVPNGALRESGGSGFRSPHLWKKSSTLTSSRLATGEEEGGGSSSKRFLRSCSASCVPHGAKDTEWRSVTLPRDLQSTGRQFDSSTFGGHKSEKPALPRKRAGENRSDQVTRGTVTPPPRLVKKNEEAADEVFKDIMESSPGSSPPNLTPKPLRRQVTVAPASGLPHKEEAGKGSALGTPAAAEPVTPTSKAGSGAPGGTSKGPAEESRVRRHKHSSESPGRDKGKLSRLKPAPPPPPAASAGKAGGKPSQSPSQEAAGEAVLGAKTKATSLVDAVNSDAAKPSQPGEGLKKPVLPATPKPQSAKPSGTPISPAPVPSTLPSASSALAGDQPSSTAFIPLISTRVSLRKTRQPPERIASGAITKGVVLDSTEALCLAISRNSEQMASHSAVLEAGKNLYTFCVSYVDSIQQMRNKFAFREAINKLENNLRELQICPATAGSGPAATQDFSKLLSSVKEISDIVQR

[9] = biological target: T2, Tyrosine-protein kinase ABL1; experiment: Inhibition of ABL (unknown origin) by kinome scan assay
[10] = biological target: T1, Proto-oncogene tyrosine-protein kinase receptor Ret; experiment: Inhibition of RET (unknown origin) assessed as residual activity at 1 uM by kinome scan assay relative to control
[11] = biological target: Platelet-derived growth factor receptor beta (Homo sapiens) (UniProt P09619); experiment: Inhibition of PDGFRbeta (unknown origin) assessed as residual activity at 1 uM by kinome scan assay relative to control
Chain of Platelet-derived growth factor receptor beta (Homo sapiens) (P09619 whole entry): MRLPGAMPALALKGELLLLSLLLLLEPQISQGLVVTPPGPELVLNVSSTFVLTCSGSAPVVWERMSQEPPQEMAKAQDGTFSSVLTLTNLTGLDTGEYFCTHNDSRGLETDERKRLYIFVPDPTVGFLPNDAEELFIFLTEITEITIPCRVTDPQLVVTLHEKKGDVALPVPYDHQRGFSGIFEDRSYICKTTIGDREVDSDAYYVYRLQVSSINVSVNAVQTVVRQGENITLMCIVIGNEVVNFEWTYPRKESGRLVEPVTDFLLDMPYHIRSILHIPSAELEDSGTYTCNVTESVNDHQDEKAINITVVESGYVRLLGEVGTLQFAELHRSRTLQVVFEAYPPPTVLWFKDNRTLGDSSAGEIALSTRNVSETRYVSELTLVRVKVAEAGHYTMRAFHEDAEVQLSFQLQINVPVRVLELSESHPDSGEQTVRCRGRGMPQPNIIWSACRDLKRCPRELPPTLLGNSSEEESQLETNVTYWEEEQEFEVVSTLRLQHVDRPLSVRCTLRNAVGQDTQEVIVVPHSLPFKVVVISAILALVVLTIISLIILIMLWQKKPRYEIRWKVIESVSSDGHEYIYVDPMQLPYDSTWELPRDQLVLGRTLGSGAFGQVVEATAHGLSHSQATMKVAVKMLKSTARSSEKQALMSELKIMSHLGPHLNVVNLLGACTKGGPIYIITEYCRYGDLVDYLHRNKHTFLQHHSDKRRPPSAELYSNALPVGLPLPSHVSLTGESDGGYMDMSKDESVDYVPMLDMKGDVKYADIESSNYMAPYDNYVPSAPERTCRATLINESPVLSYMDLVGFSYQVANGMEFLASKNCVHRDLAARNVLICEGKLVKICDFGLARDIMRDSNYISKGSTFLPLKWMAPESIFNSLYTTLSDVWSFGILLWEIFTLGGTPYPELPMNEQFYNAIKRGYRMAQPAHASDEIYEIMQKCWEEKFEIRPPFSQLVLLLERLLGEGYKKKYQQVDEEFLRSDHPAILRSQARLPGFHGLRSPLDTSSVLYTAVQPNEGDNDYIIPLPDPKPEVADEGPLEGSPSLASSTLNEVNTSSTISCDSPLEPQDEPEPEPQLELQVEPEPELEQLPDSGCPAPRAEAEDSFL

CCN1CCN(CCCOc2cc3nccc(Oc4c(F)cc(NC(=O)NN5C(=O)CSC5c5c(F)cccc5F)cc4F)c3cc2OC)CC1 (centres undefined)
CLint scaled at 1 µM [1]: 19.8 mL/min/kg
IC50 (MKN-45): 610 nM
IC50 (cells): 2300 nM
IC50 (LoVo): 930 nM
half-life at 1 µM [2]: 1.47 h
IC50 (SNU-5): 270 nM
remaining at 0.75 h, 1 µM [3]: 70.1%
IC50 (BaF3 [4]): 76 nM
IC50 (EBC-1): 160 nM
IC50 (BaF3 [5]): 45 nM
IC50 (COLO 205): 48 nM
IC50 [6]: > 10000 nM
IC50 (HCT-116): 540 nM
IC50 (HT-29): 69 nM

CCN(CC)CCCOc1cc2nccc(Oc3ccc(NC(=O)NN4C(=O)CSC4c4c(F)cccc4F)cc3)c2cc1OC (centres undefined)
IC50 (BaF3 [4]): 120 nM
IC50 (BaF3 [5]): 58 nM
IC50 (HCT-116): 150 nM
IC50 (HT-29): 530 nM

CCN1CCN(CCCOc2cc3nccc(Oc4ccc(NC(=O)NN5C(=O)CSC5c5c(F)cccc5F)cc4)c3cc2OC)CC1 (centres undefined)
IC50 (BaF3 [4]): 130 nM
IC50 (BaF3 [5]): 59 nM
IC50 (HCT-116): 110 nM
IC50 (HT-29): 220 nM

CCN(CC)CCCOc1cc2nccc(N(C)c3ccc(NC(=O)NN4C(=O)CSC4c4c(F)cccc4F)cc3)c2cc1OC (centres undefined)
IC50 (BaF3 [4]): 6900 nM
IC50 (BaF3 [5]): 2200 nM
IC50 (HCT-116): > 10000 nM

CCN(CC)CCCOc1cc2nccc(Oc3c(F)cc(NC(=O)NN4C(=O)CSC4c4c(F)cccc4F)cc3F)c2cc1OC (centres undefined)
IC50 (BaF3 [4]): 220 nM
IC50 (BaF3 [5]): 94 nM
IC50 [6]: 3800 nM
IC50 (HCT-116): 440 nM
IC50 (HT-29): 140 nM

CCN(CC)CCCOc1cc2nccc(Oc3ccc(C(=O)NN4C(=O)CSC4c4c(F)cccc4F)cc3)c2cc1OC (centres undefined)
IC50 (BaF3 [4]): 930 nM
IC50 (BaF3 [5]): 330 nM
IC50 (HCT-116): 3200 nM
IC50 (HT-29): 680 nM

CCN(CC)CCCOc1cc2nc(N)cc(Oc3ccc(NC(=O)NN4C(=O)CSC4c4c(F)cccc4F)cc3)c2cc1OC (centres undefined)
IC50 (BaF3 [4]): > 10000 nM
IC50 (BaF3 [5]): 3300 nM

CCN1CCN(CCCOc2cc3nccc(Oc4c(F)cc(NC(=O)NN5C(=O)CS[C@@H]5c5ccc(F)cc5F)cc4F)c3cc2OC)CC1
half-life at 1 µM [2]: 2.58 h
IC50 (COLO 205): 63 nM
IC50 [6]: 4500 nM

CCN(CC)CCCOc1cc2nccc(Nc3ccc(NC(=O)NN4C(=O)CSC4c4c(F)cccc4F)cc3)c2cc1OC (centres undefined)
IC50 (BaF3 [4]): 4500 nM
IC50 (BaF3 [5]): 2100 nM
IC50 (HCT-116): > 10000 nM
IC50 (HT-29): 5500 nM

CCN1CCN(CCCOc2cc3nccc(Oc4c(F)cc(NC(=O)NN5C(=O)CSC5c5ccccc5F)cc4F)c3cc2OC)CC1 (centres undefined)
CLint scaled at 1 µM [1]: 13.3 mL/min/kg
IC50 (MKN-45): 2300 nM
IC50 (NCI-H1993): 2300 nM
IC50 (LoVo): 1300 nM
half-life at 1 µM [2]: 2.17 h
IC50 (SNU-5): 880 nM
remaining at 0.75 h, 1 µM [3]: 78.2%
IC50 (BaF3 [4]): 88 nM
IC50 (EBC-1): 230 nM
IC50 (BaF3 [5]): 53 nM
IC50 (COLO 205): 63 nM
IC50 [6]: > 10000 nM
IC50 (HCT-116): 140 nM
IC50 (HT-29): 110 nM

C[C@]12CC[C@H]3[C@@H](CCC4=CC(=O)CC[C@@]43C)[C@@H]1CC[C@@H]2O [TESTOSTERONE]
CLint scaled at 1 µM [1]: 164 mL/min/kg
half-life at 1 µM [2]: 0.177 h
remaining at 0.75 h, 1 µM [3]: 8.1%

CCN1CCN(CCCOc2cc3nccc(Oc4c(F)cc(NC(=O)NN5C(=O)CSC5c5ccc(F)cc5F)cc4F)c3cc2OC)CC1 (racemic)
IC50 [7]: 27.9 nM
CLint scaled at 1 µM [1]: 10.7 mL/min/kg
Activity [8]: 0.25%
IC50 (MKN-45): 380 nM
IC50 [9]: 145 nM
Activity [10]: 0.25%
IC50 (NCI-H1993): 1500 nM
IC50 (cells): 780 nM
IC50 (LoVo): 1600 nM
half-life at 1 µM [2]: 2.7 h
IC50 (SNU-5): 170 nM
remaining at 0.75 h, 1 µM [3]: 82%
Activity [11]: 0.1%
IC50 (EBC-1): 150 nM
IC50 (BaF3 [5]): 57 nM
IC50 (COLO 205): 35 nM
IC50 [6]: 4200 nM
IC50 (HCT-116): 98 nM
IC50 (HT-29): 530 nM
